Measured values: patent publication US11292767B2, “Heterocyclic inhibitors of MCT4” (Vettore, LLC, priority 2016, dated 2022)

Experiments:
Assay type in all cases: in vitro ADME
[1] = Metabolic stability in human liver microsomes (in vitro t1/2); conditions: human liver microsomes 0.5 mg/mL, 2 μM compound; for Human microsome % 60 min: % remaining at 60 min
Experimental: (§1) Metabolic Stability Assays The following are assays that may be used to evaluate the metabolic stability of compounds of Formula (I) in human, rat, or mouse microsomes. The assays follow a common procedure recited below. 1. […] Two separated experiments were performed as follows. a) With NADPH: 10 μL of 20 mg/mL liver microsomes and 40 μL of 10 mM NADPH were added to the incubations. […] The final concentration of microsomes was 0.5 mg/mL. 3. The reaction was started with the addition of 4 μL of 200 μM control compound or test compound solutions. Verapamil was used as positive control in this study. The final concentration of test compound or control compound was 2 μM. 4. Aliquots of 50 μL were taken from the reaction solution at 0, 15, 30, 45 and 60 min. […] Samples were centrifuged at 3,220 g for 40 minutes. A 90 μL aliquot of the supernatant was mixed with 90 μL of ultra-pure H2O and then used for LC-MS/MS analysis. 5. Data analysis. All calculations were carried out using Microsoft Excel. Peak areas were determined from extracted ion chromatograms. The slope value, k, was determined by linear regression of the natural logarithm of the remaining percentage of the parent drug vs. incubation time curve. The in vitro half-life (in vitro t1/2) was determined from the slope value: in vitro t1/2=−(0.693)/k.

[2] = Metabolic stability in rat liver microsomes (in vitro t1/2); conditions: rat liver microsomes 0.5 mg/mL, 2 μM compound, % remaining at 60 min
Experimental: as §1

[3] = Metabolic stability in mouse liver microsomes (in vitro t1/2); conditions: mouse liver microsomes 0.5 mg/mL, 2 μM compound, % remaining at 60 min
Experimental: as §1

SMILES | Human microsome % 60 min [1] | Rat microsome % 60 min [2] | Mouse microsome % 60 min [3] | Human microsome t1/2, min ([1]; in vitro t1/2)
CC[C@](C)(OCc1cc(-c2cccc(OC)c2)n(Cc2ccccc2Cl)n1)C(=O)O [Example 120, (2S)-2-([1-[(2-chlorophenyl)methyl]-5-(3-methoxyphenyl)-1H-pyrazol-3-yl]methoxy)-2-methylbutanoic Acid] | 81% | 44% |  | 
CCOc1cccc(-n2nc(COC(C)(C)C(=O)O)cc2-c2cc(OC)cc(OC)c2)c1 [Example 243, 2-([5-(3,5-Dimethoxyphenyl)-1-(3-ethoxyphenyl)-1H-pyrazol-3-yl]-methoxy)-2-methylpropanoic acid] | 88% | 88% | 97% | 
CC(C)COc1ncc(-c2cc(COC(C)(C)C(=O)O)nn2Cc2ccccc2Cl)s1 [Example 132, 2-([1-[(2-Chlorophenyl)methyl]-5-[2-(2-methylpropoxy)-1,3-thiazol-5-yl]-1H-pyrazol-3-yl]methoxy)-2-methylpropanoic acid] | 70% | 70% | 64% | 
COc1cccc(-c2cc(COC(C)(C)C(=O)O)nn2Cc2ccccc2OC)c1 [Example 36, 2-([5-(3-Methoxyphenyl)-1-[(2-methoxyphenyl)methyl]1H-pyrazol-3-yl]methoxy)-2-methylpropanoic acid] | 85% |  | 99% | 
COc1ccc(-c2cc(COC(C)(C)C(=O)O)nn2Cc2ccccc2Cl)s1 [Example 64, 2-([1-[(2-Chlorophenyl)methyl]-5-(5-methoxythien-2-yl)-1H-pyrazol-3-yl]methoxy)-2-methylpropanoic acid] | 82% |  | 84% | 
COc1cccc(-c2c(C)c(COC(C)(C)C(=O)O)nn2Cc2ccccc2Cl)c1 [Example 54, 2-({1-[(2-Chlorophenyl)methyl]-5-(3-methoxyphenyl)-4-methyl-1H-pyrazol-3-yl}methoxy)-2-methylpropionic acid] | 59% |  | 95% | 
COc1cc(-c2cc(COC(C)(C)C(=O)O)nn2Cc2ccccc2Cl)cs1 [Example 66, 2-([1-[(2-chlorophenyl)methyl]-5-(5-methoxythien-3-yl)-1H-pyrazol-3-yl]methoxy)-2-methylpropanoic acid] | 73% |  | 83% | 
CC(C)(OCc1cc(-c2cccc(OC3CC3)c2)n(Cc2ccccc2Cl)n1)C(=O)O [Example 39, 2-([1-[(2-Chlorophenyl)methyl]-5-[3-(cyclopropoxy)phenyl]1H-pyrazol-3-yl]methoxy)-2-methylpropanoic acid] | 89% |  | 88% | 
COc1cccc(-c2cc(COC(C)(C)C(=O)O)nn2Cc2ccccc2N(C)C)c1 [Example 38, 2-([1-[[2-(Dimethylamino)phenyl]methyl]-5-(3-methoxyphenyl)1H-pyrazol-3-yl]methoxy)-2-methylpropanoic acid] | 56% |  | 61% | 
CCC(C)(OCc1cc(-c2cccc(OC)c2)n(Cc2ccccc2Cl)n1)C(=O)O (stereo not drawn) [Example 68, 2-([1-[(2-Chlorophenyl)methyl]-5-(3-methoxyphenyl)-1H-pyrazol-3-yl]methoxy)-2-methylbutanoic acid] | 95% |  | 91% | 
CC(C)(OCc1cc(-c2cccc(OC3CC3)c2)n(Cc2ccccc2N2CCCC2)n1)C(=O)O [Example 202, 2-([5-(3-Cyclopropoxyphenyl)-1-[[2-(pyrrolidin-1-yl)phenyl]methyl]-1H-pyrazol-3-yl]methoxy)-2-methylpropanoic acid] | 32% | 2% | 32% | 
CC(C)Cc1ncc(-c2cc(COC(C)(C)C(=O)O)nn2Cc2ccccc2Cl)o1 [Example 134, 2-([1-[(2-Chlorophenyl)methyl]-5-[2-(2-methylpropyl)-1,3-oxazol-5-yl]-1H-pyrazol-3-yl]methoxy)-2-methylpropanoic acid] | 80% | 85% | 72% | 
CC[C@@](C)(OCc1cc(-c2cccc(OC)c2)n(Cc2ccccc2Cl)n1)C(=O)O [Example 121, (2R)-2-([1-[(2-chlorophenyl)methyl]-5-(3-methoxyphenyl)-1H-pyrazol-3-yl]methoxy)-2-methylbutanoic Acid] | 82% | 61% | 81% | 
COc1cccc(-c2cc(COC(C)(C)C(=O)O)nn2Cc2ccccc2OC(C)C)c1 [Example 140, 2-([5-(3-Methoxyphenyl)-1-[[2-(propan-2-yloxy)phenyl]methyl]-1H-pyrazol-3-yl]methoxy)-2-methylpropanoic acid] | 67% | 48% | 62% | 
Cc1ccccc1-n1nc(COC(C)(C)C(=O)O)cc1-c1cccc(OC2CC2)c1 [Example 188, 2-([5-(3-Cyclopropoxyphenyl)-1-(2-methylphenyl)-1H-pyrazol-3-yl]-methoxy)-2-methylpropanoic acid] |  | 87% | 92% | ∞
CC(C)(OCc1cc(-c2cccc(OC3CC3)c2)n(-c2ccccc2N2CCCC2)n1)C(=O)O [Example 221, 2-([5-(3-Cyclopropoxyphenyl)-1-[2-(pyrrolidin-1-yl)phenyl]-1H-pyrazol-3-yl]methoxy)-2-methylpropanoic acid] | 56% | 33% | 34% | 
CC(C)(OCc1cc(-c2cccc(OCC3CCC3)c2)n(-c2ccccc2Cl)n1)C(=O)O [Example 178, 2-([1-(2-Chlorophenyl)-5-[3-(Cyclobutylmethoxy)phenyl]-1H-pyrazol-3-yl]methoxy)-2-methylpropanoic acid] | 66% | 72% | 70% | 
CCn1ncc2ccc(-c3cc(COC(C)(C)C(=O)O)nn3-c3ccccc3Cl)cc21 [Example 157, 2-([1-(2-chlorophenyl)-5-(1-ethyl-1H-indazol-6-yl)-1H-pyrazol-3-yl]methoxy)-2-methylpropanoic acid] | 78% | 97% |  | 
COc1csc(-c2cc(COC(C)(C)C(=O)O)nn2Cc2ccccc2Cl)c1 [Example 65, 2-([1-[(2-Chlorophenyl)methyl]-5-(4-methoxythien-2-yl)-1H-pyrazol-3-yl]methoxy)-2-methylpropanoic acid] | 78% |  | 92% | 
CC(C)COc1cccc(-c2cc(COC(C)(C)C(=O)O)nn2Cc2ccccc2Cl)c1 [Example 27, 2-([1-[(2-Chlorophenyl)methyl]-5-(3-(2-methylpropoxy)phenyl)1H-pyrazol-3-yl]methoxy)-2-methylpropanoic acid] | 43% |  | 50% | 
CC(C)Oc1cccc(-c2cc(COC(C)(C)C(=O)O)nn2Cc2ccccc2Cl)c1 [Example 35, 2-([1-[(2-Chlorophenyl)methyl]-5-(3-isopropoxyphenyl)1H-pyrazol-3-yl]methoxy)-2-methylpropanoic acid] | 67% |  | 31% | 
